Laboratory results from patent publication US8153818B2, “Triazolyl phenyl benzenesulfonamides” (ChemoCentryx, Inc., priority 2006, dated 2012).

Each compound was assayed against T1, CCR9 (Homo sapiens, UniProt P51686) (assay: CCR9 activity in one of the chemotaxis, binding or calcium mobilization assays). Details: assay not specified per compound.
T1 construct: chemokine expressing cells (such as THP-1 cells for CCR2 assay or MOLT-4 cells for CCR9 assay); host or cells: MOLT-4
T1 sequence (P51686 1-369): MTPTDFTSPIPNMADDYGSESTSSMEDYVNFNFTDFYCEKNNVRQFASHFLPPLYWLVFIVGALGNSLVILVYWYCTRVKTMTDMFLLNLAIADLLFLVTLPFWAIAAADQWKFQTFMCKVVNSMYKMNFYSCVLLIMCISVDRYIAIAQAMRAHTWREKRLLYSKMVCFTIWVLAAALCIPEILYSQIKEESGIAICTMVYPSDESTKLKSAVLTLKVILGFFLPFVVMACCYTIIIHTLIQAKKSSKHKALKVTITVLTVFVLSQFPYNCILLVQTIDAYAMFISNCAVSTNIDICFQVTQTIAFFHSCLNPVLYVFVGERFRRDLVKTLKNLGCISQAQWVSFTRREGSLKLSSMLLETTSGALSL
Format: cell-based
Method: Conventional migration assay was used to determine the efficacy of potential receptor antagonists in blocking migration mediated through chemokines (such as CCR2 or CCR9). This assay was routinely performed using the ChemoTX® microchamber system with a 5-μm pore-sized polycarbonate membrane. To begin such an assay, chemokine expressing cells (such as THP-1 cells for CCR2 assay or MOLT-4 cells for CCR9 assay) were harvested by centrifugation of cell suspension at 1000 RPM on a GS-6R Beckman centrifuge. The cell pellet was resuspended in chemotaxis buffer (HBSS with 0.1% BSA) at 10×10^6 cells/mL for CCR2 assay (5×10^6 cells/mL for CCR9 assay). Test compounds at desired concentrations were prepared from 10 mM stock solutions by serial dilutions in chemotaxis buffer. An equal volume of cells and compounds were mixed and incubated at room temperature for 15 minutes. Afterwards, 20 μL of the mixture was transferred onto the porous membrane of a migration microchamber, with 29 μL of chemokine ligand (0.1 nM chemokine MCP-1 protein for CCR2 assay or […] chemokine TECK protein for CCR9 assay) placed at the lower chamber. Following an incubation at 37° C. (90-minute for CCR2; 150-minute for CCR9), during which cells migrated against the chemokine gradient, the assay was terminated by removing the cell drops from atop the filter. To quantify cells migrated across the membrane, 5 μL of 7×CyQUANT® solution was added to each well in the lower chamber, and the fluorescence signal measured on a Spectrafluor Plus fluorescence plate reader (TECAN, Durham, N.C.). The degree of inhibition was determined by comparing migration signals between compound-treated and untreated cells. IC50 calculation was further performed by non-linear squares regression analysis using Graphpad Prism (Graphpad Software, San Diego, Calif.).
Calcium flux assay measures an increase in intracellular calcium following ligand-induced receptor activation. In the screen of chemokine antagonists, it was used as a secondary assay carried out on a FLIPR® machine (Molecular Devices, Mountain View, Calif.). To begin an assay, chemokine expressing cells (such as THP-1 cells for CCR2 assay or MOLT-4 cells for CCR9 assay) were harvested by centrifugation of cell suspension, and resuspended to 1.5×10^6 cells/mL in HBSS (with 1% fetal calf serum). Cells were then labeled with a calcium indicator dye Fluo-4 AM for 45 minutes at 37° C. with gentle shaking. Following incubation, cells were pelletted, washed once with HBSS and resuspended in the same buffer at a density of 1.6×10^6 cells/mL. One hundred microliters of labeled cells were mixed with 10 μL of test compound at the appropriate concentrations on an assay plate. Chemokine protein (MCP-1 at a final concentration of 0.1 nM for CCR2 assay or TECK at a final concentration of 25 nM for CCR9 assay) to activate the receptor. The degree of inhibition was determined by comparing calcium signals between compound-treated and untreated cells. IC50 calculations were further performed by non-linear squares regression analysis using Graphpad Prism (Graphpad Software, San Diego, Calif.). […]
In the tables below, structures and activity are provided for representative compounds described herein. Activity is provided as follows for either or both of the chemotaxis assay and/or calcium mobilization assays, described above.
In the case of `CCOC(=O)Cc1nnc(-c2cc(Cl)c(F)cc2NS(=O)(=O)c2ccc(C(C)(C)C)cc2)n1C` [Compound 64, ethyl 2-(5-(2-(4-tert-butylphenylsulfonamido)-5-chloro-4-fluorophenyl)-4-methyl-4H-1,2,4-triazol-3-yl)acetate], the IC50 is reported as < 1000 nM.
`Cn1c(CC(C)(C)O)nnc1-c1cc(Cl)c(F)cc1NS(=O)(=O)c1ccc(C(C)(C)C)cc1` [Compound 65, 4-tert-butyl-N-(4-chloro-5-fluoro-2-(5-(2-hydroxy-2-methylpropyl)-4-methyl-4H-1,2,4-triazol-3-yl)phenyl)benzenesulfonamide] was tested, and the IC50 was < 1000 nM.
In the case of `Cn1c(CN2CCOCC2)nnc1-c1cc(Cl)c(F)cc1NS(=O)(=O)c1ccc(C(C)(C)C)cc1` [Compound 66], the IC50 is reported as < 1000 nM.
In the case of `Cn1c(CS(C)(=O)=O)nnc1-c1cc(Cl)c(F)cc1NS(=O)(=O)c1ccc(C(C)(C)C)cc1` [Compound 67, 4-tert-butyl-N-(4-chloro-5-fluoro-2-(4-methyl-5-(methylsulfonylmethyl)-4H-1,2,4-triazol-3-yl)phenyl)benzenesulfonamide], the IC50 is reported as < 1000 nM.
For `Cc1nnc(-c2cc(Cl)ccc2NS(=O)(=O)c2ccc(OC(C)C)cc2)n1C` [Compound 68, N-(4-chloro-2-(4,5-dimethyl-4H-1,2,4-triazol-3-yl)phenyl)-4-isopropoxybenzenesulfonamide], the IC50 was < 1000 nM.
In the case of `CC(C)Oc1ccc(S(=O)(=O)Nc2ccc(Cl)cc2-c2nncn2C(C)C)cc1` [Compound 69, N-(4-chloro-2-(4-isopropyl-4H-1,2,4-triazol-3-yl)phenyl)-4-isopropoxybenzenesulfonamide], the IC50 is reported as < 1000 nM.
For `Cn1c(-c2cc(Cl)ccc2NS(=O)(=O)c2ccc(C(C)(C)C)cc2)nnc1C1CCNCC1` [Compound 70], the IC50 was < 1000 nM.
For `CCn1c(C)nnc1-c1cc(F)c(F)cc1NS(=O)(=O)c1ccc(C(C)(C)C)cc1` [Compound 71, 4-tert-butyl-N-(2-(4-ethyl-5-methyl-4H-1,2,4-triazol-3-yl)-4,5-difluorophenyl)benzenesulfonamide], the IC50 was < 1000 nM.
For `Cc1nnc(-c2ccc(F)cc2NS(=O)(=O)c2ccc(C(C)(C)C)cc2)n1C` [Compound 72, 4-tert-butyl-N-(2-(4,5-dimethyl-4H-1,2,4-triazol-3-yl)-5-fluorophenyl)benzenesulfonamide], the IC50 was < 1000 nM.
With `Cc1nnc(-c2cc(Cl)ccc2NS(=O)(=O)c2ccc(C(C)(C)C)cc2)n1[C@@H]1CCNC1` [Compound 73] the IC50 was < 1000 nM.
For `CCn1c(C)nnc1-c1ccc(F)cc1NS(=O)(=O)c1ccc(C(C)(C)C)cc1` [Compound 74, 4-tert-butyl-N-(2-(4-ethyl-5-methyl-4H-1,2,4-triazol-3-yl)-5-fluorophenyl)benzenesulfonamide], the IC50 was < 1000 nM.
With `CC(C)(C)c1ccc(S(=O)(=O)Nc2ccc(Cl)cc2-c2nncn2[C@@H]2CCNC2)cc1` [Compound 75] the IC50 was < 1000 nM.
With `Cn1cnnc1-c1cc(Cl)c(F)cc1NS(=O)(=O)c1ccc(C(C)(C)C)cc1` [Compound 76, 4-tert-butyl-N-(4-chloro-5-fluoro-2-(4-methyl-4H-1,2,4-triazol-3-yl)phenyl)benzenesulfonamide] the IC50 was < 1000 nM.
In the case of `Cc1nnc(-c2cc(F)c(F)cc2NS(=O)(=O)c2ccc(C(C)(C)C)cc2)n1[C@H]1CCNC1` [Compound 77, (S)-4-tert-butyl-N-(4,5-difluoro-2-(5-methyl-4-(pyrrolidin-3-yl)-4H-1,2,4-triazol-3-yl)phenyl)benzenesulfonamide], the IC50 is reported as < 1000 nM.
`CC(C)n1cnnc1-c1cc(Cl)c(F)cc1NS(=O)(=O)c1ccc(C(C)(C)C)cc1` [Compound 78, 4-tert-butyl-N-(4-chloro-5-fluoro-2-(4-isopropyl-4H-1,2,4-triazol-3-yl)phenyl)benzenesulfonamide] was tested, and the IC50 was < 1000 nM.
In the case of `Cc1ocnc1-c1nnc(-c2cc(Cl)c(F)cc2NS(=O)(=O)c2ccc(C(C)(C)C)cc2)n1C` [Compound 79], the IC50 is reported as < 1000 nM.
In the case of `Cc1nnc(-c2cc(Cl)c(F)cc2NS(=O)(=O)c2ccc(C(C)(C)C)cc2)n1C1CCOC1` (centres unmarked) [Compound 80], the IC50 is reported as < 1000 nM.
With `CC(C)c1nnc(-c2cc(Cl)c(F)cc2NS(=O)(=O)c2ccc(C(C)(C)C)cc2)n1C1CCOC1` (centres unmarked) [Compound 81] the IC50 was < 1000 nM.
In the case of `CC(C)n1c(-c2cc(Cl)c(F)cc2NS(=O)(=O)c2ccc(C(C)(C)C)cc2)nnc1C1CCOC1` (centres unmarked) [Compound 82], the IC50 is reported as < 1000 nM.
For `Cc1nnc(-c2cc(Cl)ccc2NS(=O)(=O)c2ccc(C(C)(C)C)cc2)n1CCN` [Compound 83, N-(2-(4-(2-aminoethyl)-5-methyl-4H-1,2,4-triazol-3-yl)-4-chlorophenyl)-4-tert-butylbenzenesulfonamide], the IC50 was < 1000 nM.
With `Cc1nnc(-c2cc(Cl)ccc2NS(=O)(=O)c2ccc(C(C)(C)C)cc2)n1C1CCC1` [Compound 84, 4-tert-butyl-N-(4-chloro-2-(4-cyclobutyl-5-methyl-4H-1,2,4-triazol-3-yl)phenyl)benzenesulfonamide] the IC50 was < 1000 nM.
In the case of `CC(C)(C)c1ccc(S(=O)(=O)Nc2cc(F)c(Cl)cc2-c2nncn2C2CNC2)cc1` [Compound 85], the IC50 is reported as < 1000 nM.
In the case of `CC(C)n1c(-c2cc(Cl)ccc2NS(=O)(=O)c2ccc(C(C)(C)C)cc2)nnc1C(F)(F)F` [Compound 86, 4-tert-butyl-N-(4-chloro-2-(4-isopropyl-5-(trifluoromethyl)-4H-1,2,4-triazol-3-yl)phenyl)benzenesulfonamide], the IC50 is reported as < 1000 nM.
For `CCn1c(-c2cc(Cl)c(F)cc2NS(=O)(=O)c2ccc(C(C)(C)C)cc2)nnc1C(C)C` [Compound 87, 4-tert-butyl-N-(4-chloro-2-(4-ethyl-5-isopropyl-4H-1,2,4-triazol-3-yl)-5-fluorophenyl)benzenesulfonamide], the IC50 was < 1000 nM.
With `CCc1nnc(-c2cc(Cl)c(F)cc2NS(=O)(=O)c2ccc(C(C)(C)C)cc2)n1[C@H]1CCNC1` [Compound 88] the IC50 was < 1000 nM.
With `Cn1c(CCS(C)(=O)=O)nnc1-c1cc(Cl)c(F)cc1NS(=O)(=O)c1ccc(C(C)(C)C)cc1` [Compound 89, 4-tert-butyl-N-(4-chloro-5-fluoro-2-(4-methyl-5-(2-(methylsulfonyl)ethyl)-4H-1,2,4-triazol-3-yl)phenyl)benzenesulfonamide] the IC50 was < 1000 nM.
In the case of `CC(C)(C)c1ccc(S(=O)(=O)Nc2cc(F)c(Cl)cc2-c2nncn2[C@H]2CCNC2=O)cc1` [Compound 90], the IC50 is reported as < 1000 nM.
With `CC(=O)N1CCC(n2c(C)nnc2-c2cc(Cl)ccc2NS(=O)(=O)c2ccc(C(C)(C)C)cc2)CC1` [Compound 91] the IC50 was < 1000 nM.
`CC(C)n1c(N)nnc1-c1cc(Cl)ccc1NS(=O)(=O)c1ccc(C(C)(C)C)cc1` [Compound 92, N-(2-(5-amino-4-isopropyl-4H-1,2,4-triazol-3-yl)-4-chlorophenyl)-4-tert-butylbenzenesulfonamide] was tested, and the IC50 was < 1000 nM.
With `Cc1nnc(-c2cc(Cl)ccc2NS(=O)(=O)c2ccc(C(C)(C)C)cc2)n1C1CCN(S(C)(=O)=O)CC1` [Compound 93] the IC50 was < 1000 nM.
For `Cc1nnc(-c2cc(Cl)ccc2NS(=O)(=O)c2ccc(C(C)(C)C)cc2)n1C1CCN(C(N)=O)CC1` [Compound 94], the IC50 was < 1000 nM.
With `Cc1nnc(-c2ccc(Cl)cc2NS(=O)(=O)c2ccc(C(C)(C)C)cc2)n1C(C)C` [Compound 95, 4-tert-butyl-N-(5-chloro-2-(4-isopropyl-5-methyl-4H-1,2,4-triazol-3-yl)phenyl)benzenesulfonamide] the IC50 was < 1000 nM.
